Laboratory results as given in patent publication US8691854B2, “Chemical compounds and the uses thereof as a medicine” (Trophos, priority 2005, dated 2014).

test system: primary neurones isolated from rat striatum expressing mutated huntingtin; experiment: Protection of striatum neurones in a death test induced by over-expression of a mutated form of huntingtin, GFP as reporter gene; assay type: cell-based; settings: 0.3 μM compound; survival of GFP-positive cells minus DMSO, relative to BDNF (5 ng/ml) minus DMSO; active when ratio larger than 0.2
Description: Evaluation of the Protection Provided by the Compound of Formula I on Striatum Neurones in a Death Test Induced by Over-Expression of a Mutated Form of Huntingtine by Using GFP as Reporter Gene
Primary cultures of striatum neurones are prepared as described in the literature (Mao L. et al., Methods Mol. Med., 2003, 79: 379-86).
Before sowing, an expression vector containing a promoter element followed by the DNA coding for a truncated form of huntingtin which comprises the first 480 amino acids and 68 CAG codons (Saudou et al., Cell, 1998, 95:55-66), purified beforehand, is introduced by electroporation according to the procedure described by Raoul et al., (Neuron, 2002, 35:1067-83).
A second expression vector, also purified beforehand, containing DNA coding for the green fluorescent protein (GFP) (Columbia University) is also electroporated and is used as a reporter gene.
The cells which survive electroporation are sown at a density of 4,000 cells per well on 96-well plates. The culture is achieved in 175 μl of Neurobasal medium (GIBCO) complemented with final 1 mM of pyruvate and with B-27 1/100 (Beckton Dickinson). The cells are maintained in the culture for 6 days without changing the medium.
[…] Positive controls are made by adding BDNF (Brain-Derived Neurotrophic Factor) at 5 ng/ml (Tebu) finally. The negative controls only receive 0.5% DMSO.
Cell death is evaluated after 7 days by counting the number of living cells expressing GFP.
The activity of the compounds to be tested was evaluated by their capability of preventing death of striatum neurones grown in the Neurobasal medium, as compared with survival of striatum neurones in a medium supplemented with BDNF.
The results are expressed as a ratio evaluating survival of positive GFP cells in the presence of the compound to be tested. This is therefore the number of living cells after treatment with the compound to be tested, reduced by the number of living cells after treatment with DMSO, based on (divided by) the number of survival cells after treatment with BDNF, reduced by the number of living cells after treatment with DMSO.
This ratio therefore represents the survival percentage due to the tested compound relatively to survival induced by BDNF.
In this test, a compound is considered as being active when said ratio is larger than 0.2 i.e. when it has a neuroprotective activity at least equal to 20% of the neuroprotective activity of BDNF.

| Compound | GFP ratio |
| --- | --- |
| CS(=O)(=O)c1cccc(C=CC=NNc2nc(-c3ccc(C(F)(F)F)cc3)cs2)c1 [Example 24] | >0.2 |
| FC(F)(F)c1ccc(-c2csc(NN=CC=Cc3ccccn3)n2)cc1 [Example 26] | >0.2 |

same assay, conditions: 1 μM compound; survival of GFP-positive cells minus DMSO, relative to BDNF (5 ng/ml) minus DMSO; active when ratio larger than 0.2

| Compound | GFP ratio |
| --- | --- |
| FC(F)(F)c1ccc(-c2csc(NN=CC=Cc3ccc4c(c3)OCO4)n2)cc1 [Example 21] | >0.2 |
| Fc1ccccc1C=CC=NNc1nc(-c2ccc(Cl)cc2)cs1 [Example 1] | >0.2 |
| O=[N+]([O-])c1cccc(C=CC=NNc2nc(-c3ccc(C(F)(F)F)cc3)cs2)c1 [Example 13] | >0.2 |
| N#Cc1cccc(C=CC=NNc2nc(-c3ccc(C(F)(F)F)cc3)cs2)c1 [Example 11] | >0.2 |
| N#Cc1cccc(C=CC=NNc2nc(-c3ccc(Cl)cc3)cs2)c1 [Example 10] | >0.2 |
| CS(=O)(=O)c1cccc(C=CC=NNc2nc(-c3ccc(Cl)cc3)cs2)c1 [Example 18] | >0.2 |
| Clc1ccc(-c2csc(NN=CC=Cc3ccccn3)n2)cc1 [Example 25] | >0.2 |
| Nc1cccc(C=CC=NNc2nc(-c3ccc(Cl)cc3)cs2)c1 [Example 14] | >0.2 |
| Nc1cccc(C=CC=NNc2nc(-c3ccc(C(F)(F)F)cc3)cs2)c1 [Example 17] | >0.2 |

same assay, conditions: 3 μM compound; survival of GFP-positive cells minus DMSO, relative to BDNF (5 ng/ml) minus DMSO; active when ratio larger than 0.2

| Compound | GFP ratio |
| --- | --- |
| Cc1ccccc1C=CC=NNc1nc(-c2ccc(Cl)cc2)cs1 [Example 9] | >0.2 |
| Fc1ccc(C=CC=NNc2nc(-c3ccc(C(F)(F)F)cc3)cs2)cc1 [Example 29] | >0.2 |
| COc1cc(Cl)ccc1-c1csc(NN=CC=Cc2ccccc2)n1 [Example 22] | >0.2 |
| Oc1cccc(-c2csc(NN=CC=Cc3ccccc3)n2)c1 [Example 7] | >0.2 |
| N#Cc1cccc(C=CC=NNc2nc(-c3cccc(O)c3)cs2)c1 [Example 19] | >0.2 |
| COc1ccccc1C=CC=NNc1nc(-c2ccc(Cl)cc2)cs1 [Example 3] | >0.2 |
| 3-(3-nitrophenyl)-2-propenal-[4-(4-chlorophenyl-2-thiazolyl)hydrazone [Example 2] | >0.2 |
| FC(F)(F)c1ccc(-c2csc(NN=CC=Cc3ccncc3)n2)cc1 [Example 16] | >0.2 |

same assay, conditions: 10 μM compound; survival of GFP-positive cells minus DMSO, relative to BDNF (5 ng/ml) minus DMSO; active when ratio larger than 0.2

| Compound | GFP ratio |
| --- | --- |
| 3-(2-chlorophenyl)-2-propenal-[4-(4-chlorophenyl-2-thiazolyl)hydrazone [Example 12] | >0.2 |
| Clc1ccc(-c2csc(NN=CC=Cc3ccncc3)n2)cc1 [Example 8] | >0.2 |
| COc1cccc(C=CC=NNc2nc(-c3ccc(Cl)cc3)cs2)c1 [Example 6] | >0.2 |
